From PMC9863136, “Synthesis and DNase I Inhibitory Properties of New Squaramides” (Molecules, 2023)

Tests used:
[1] = molecular target: bovine pancreatic DNase I (Bos taurus, UniProt P00639); test: in vitro DNase I inhibition assay (spectrophotometric, absorbance of oligonucleotides at 260 nm); assay type: biochemical
Experimental: Compounds 3a–c were included in an in vitro DNase I inhibition assay.
Evaluation of DNase I inhibition. In vitro determination of the inhibitory activity of compounds 3a–c against bovine pancreatic DNase I was performed using the spectrophotometric method described by Kolarević et al., which is based on measuring the absorbance of the formed oligonucleotides at 260 nm.

Chain of bovine pancreatic DNase I (P00639 23-282): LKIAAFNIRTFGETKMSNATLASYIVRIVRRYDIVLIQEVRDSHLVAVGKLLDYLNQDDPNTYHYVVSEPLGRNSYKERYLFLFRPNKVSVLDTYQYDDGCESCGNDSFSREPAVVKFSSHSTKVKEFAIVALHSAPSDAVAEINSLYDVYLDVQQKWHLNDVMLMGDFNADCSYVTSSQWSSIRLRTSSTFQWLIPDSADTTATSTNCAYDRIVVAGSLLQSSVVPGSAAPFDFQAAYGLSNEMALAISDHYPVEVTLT

melting point [°C]	IC50 [1] [µM]	Compound
139.8 to 141.2	54.5 ± 8.07	CCOc1c(NCCc2cccnc2)c(=O)c1=O [Compound 3a]
	57.8 ± 9.67	CCOc1c(NCCc2ccncc2)c(=O)c1=O [Compound 3b]
	48 ± 7.98	CCOc1c(NC(C)Cc2cccnc2)c(=O)c1=O (centres unmarked) [Compound 3c, 3-Ethoxy-4-((1-(pyridin-3-yl)propan-2-yl)amino)cyclobut-3-ene-1,2-dione]
	358 ± 40.7	CN(C)c1ccc(C(=C2C=CC(=[N+](C)C)C=C2)c2ccc(N(C)C)cc2)cc1 [crystal violet, reference compound]
